Experimental data reported in paper PMC10610289, “Novel Baicalein-Derived Inhibitors of Plasmodium falciparum” (Pathogens, 2023).
Entries after “also recorded” stand apart in the source; their conditions may differ.

Legend:
[1] = test system: P. falciparum male gametocytes; experiment: P. falciparum dual gamete formation assay (PfDGFA), male; type: cell-based; conditions: Plasmodium falciparum, read-out: DGF Assay—Inhibition, male
Procedure: (§1) The FNDR-10132 was evaluated in a male and female gametocyte functional viability assay by following the procedure described in Ruecker et al..

[2] = test system: P. falciparum female gametocytes; experiment: P. falciparum dual gamete formation assay (PfDGFA), female; type: cell-based; conditions: Plasmodium falciparum, read-out: DGF Assay—Inhibition, female
Procedure: as §1

[3] = test system: resistant strains of P. falciparum; experiment: Cross-resistance panel, all mutants/strains tested; type: cell-based; conditions: Plasmodium falciparum, read-out: antimalarial activity range against all mutants/strains tested
Procedure: (§2) Parasite lines used in the study were P. falciparum 3D7 (Pf3D7 Chloroquine-sensitive) and Plasmodium falciparum K1 (PfK1 Chloroquine-resistant) sourced from the Malaria Research and Reference Reagent Resource Center (MR4), ATCC, Manassas, VA, USA. FNDR-10132 was tested against a cross-resistance panel at Swiss TPH, Allschwil, Switzerland.

[4] = test system: Dd2 ELQ300 (PfcytB Ile22Leu); experiment: Cross-resistance panel, Dd2 ELQ300; type: cell-based, Plasmodium falciparum
Procedure: as §2

[5] = test system: Dd2 DDD107498 (PfeEF2 Y186N); experiment: Cross-resistance panel, Dd2 DDD107498; type: cell-based, Plasmodium falciparum
Procedure: as §2

Plasma stability = type: in vitro ADME
Description: (§3) Table 5 The compound FNDR-10132 progression profile. | column: FNDR-10132

[6] = test system: Dd2 390048 (Pfpi4k S743T); experiment: Cross-resistance panel, Dd2 390048; type: cell-based, Plasmodium falciparum
Procedure: as §2

Vero cells = experiment: Cytotoxicity assay against Vero cell line; type: cell-based; conditions: 72 h, resazurin (CC50)
Procedure: Vero cells were initially washed with PBS and trypsinized, and a 1 × 10^5 cells/mL suspension was prepared. A total of 100 µL of a cell suspension was distributed to each well of the 96-well microtiter plates and allowed to adhere overnight. The next day, serial dilutions of selected test compounds were made in the plates and incubated for 72 h. After 72 h, a ten-microliter resazurin solution (12.5 mg/100 mL PBS) was added to each well. After 3 h, plates were read using a fluorescence reader (Biotek) at an excitation wavelength of 530 nm and an emission wavelength of 590 nm (Sperandeo and Brun, 2003). The MS-EXEL template determined the cytotoxic concentration (CC50) for selected compounds.

Dd2 DSM265 (Pfdhodh) = experiment: Cross-resistance panel, Dd2 DSM265; type: cell-based, Plasmodium falciparum
Procedure: as §2

THP-1 = experiment: Cytotoxicity in THP-1; type: cell-based
Description: as §3

[7] = Body weight of mice during treatment; type: in vivo, Swiss mice; conditions: 100 mg/kg oral
Description: One crucial aspect of evaluating potential malaria treatments is assessing their safety and tolerance in the host organism. In this regard, the present study closely monitored the body weights of the mice throughout the drug treatment.

[8] = test system: Plasmodium falciparum K1 (chloroquine-resistant); experiment: Antimalarial assay (IC50 determination), asexual blood stage, SYBR green; type: cell-based; conditions: read-out: ABS Assay Pf (K1)
Procedure: as §2
As per the modified protocol stated by Trager and Jensen, 1976, Plasmodium falciparum parasite lines (Pf3D7 and PfK1) were cultured. Plasmodium strains were maintained in RPMI-1640 medium at 3–5% hematocrit supplemented with 0.2% w/v glucose, 0.5% w/v AlbuMaxII, 0.2% w/v NaHCO3, and 30 μg/mL gentamycin, and, additionally, 15 μM hypoxanthine was added and incubated at 37 °C with 5% O2, 5% CO2, and 90% N2. After 24 h, the medium was changed. After attaining high parasitemia (6–8% mature stage parasite), the culture was sub-passaged with fresh human RBCs.
All tested compounds were dissolved in a DMSO solvent and a prepared stock solution of 10 mM. The reference drug, Chloroquine diphosphate, was dissolved in CRPMI. Working solutions were made from stock solution after diluting in a CRPMI medium during the experiment. The maximum concentration of DMSO used in this study was <1%. It had no parasiticidal effect.
The P. falciparum (0.8–1% parasitemia and 1% hematocrit) synchronous culture was exposed for 72 h (at 37 °C, 5% O2, 5% CO2, and 90% N2) to the serially diluted compound in 96-well plates. A total of 100 µL of RBCs lytic buffer (5 mM EDTA, 20 mM Tris pH 7.5, 0.08% Triton X-100, and 0.008% Saponin) containing the SYBR green 1-X final concentration was distributed to each well and incubated for one hour at room temp in the dark. The plates were read under a fluorescence reader at an excitation of 485 ± 20 nm and emission of 535 ± 25 nm. The IC50 values were calculated based on the DNA content of the parasite relative to its control. An inhibitory concentration of 50% (IC50) was determined using the MS-EXEL template.

[9] = test system: Plasmodium yoelii N67 (Chloroquine-resistant); experiment: In vivo antimalarial assay in Swiss mice; conditions: 100 mg/kg ×4 days, oral
Procedure: All animal experiments were performed following the institutional animal ethics committee (IAEC). Laboratory-bred Swiss albino mice (both male and female) weighing 20–22 g were obtained from breeding colonies at the National Laboratory Animal Centre at the CSIR-CDRI, Lucknow, with due permission from the animal ethics committee (IAEC/2018/16/Renew-1/Dated-05/04/2019). The rodent malaria parasite Plasmodium yoelii N67 (chloroquine-resistant) was used for the study. This parasite was maintained by serial passage in healthy Swiss mice of either sex.
Swiss mice were inoculated with a standard inoculum of 1 × 106 P. yoelii N67 parasitized erythrocytes intraperitoneally. The 22-gauge hypodermic needle was used to infect the mice and was injected with a 0.5 mL (infected RBCs) volume. Treatment was initiated from day 0 to day 3 (total 4 days) once daily, and different routes of administration, viz., oral, intravenous, intraperitoneally, and subcutaneous, were used. For in vivo evaluation, compounds were dissolved in 300 µL of DMSO and were made up with MilliQ. The efficacy of in vitro active compounds was evaluated for in vivo activity at different doses, and the desired daily dose was administered in a 0.2 mL volume. A drop of blood from the mice’s tails was collected regularly throughout the experiment for parasitemia estimation. The group’s mean value was calculated using the percentage suppression of parasitemia compared with the untreated control group.

## CCCCCCc1ccc(-c2cc(=O)c3c(O)c(O)c(O)cc3o2)cc1 [FNDR-10132]
[1]
  inhibition at 1 µM: 1.6%
[2]
  inhibition at 1 µM: 9.5%
[3]
  IC50: 200 to 300 nM
[4]; Plasmodium falciparum, DD2
  IC50: 238 nM
[4]; strain Dd2 ELQ300
  Fold shift IC50 rel. Dd2: 0.7
[5]; Plasmodium falciparum, DD2
  IC50: 211 nM
[5]; strain Dd2 DDD107498
  Fold shift IC50 rel. Dd2: 0.6
Plasma stability; at 30 min
  Plasma Stability: 87.61%
Plasma stability; at 45 min
  Plasma Stability: 80.97%
[6]; Plasmodium falciparum, DD2
  IC50: 290 nM
[6]; strain Dd2 390048
  Fold shift IC50 rel. Dd2: 0.9
Vero cells
  Cytotoxicity Vero Cell: 174 µM
Dd2 DSM265 (Pfdhodh); Plasmodium falciparum
  IC50: 260 nM
Dd2 DSM265 (Pfdhodh); strain Dd2 DSM265
  Fold shift IC50 rel. Dd2: 0.8
THP-1
  Cytotoxicity THP-1: 90 µM
[7]
  Weight of Mice Day after the Last Dose of Treatment (Day 4): 27.5 gm
  Weight of Mice at the Initiation of Treatment (Day 0): 25 gm
  weight loss / tolerability (in words): no significant weight loss; also recorded: well-tolerated
[7]; Day 0 to Day 4
  Weight Gain: 2.5 gm
[8]
  IC50: 177 nM
[9]
  % Parasitemia ± S.D on Day 4: 8.5 ± 1.39 (4) %
  % Parasitemia ± S.D on Day 7: 26.15 ± 8.70 (4) %
  % Parasitemia ± S.D on Day 10: 24.07 ± 3.69 (3) %
  % Parasitemia ± S.D on Day 14: 46.5 ± 4.2 (2) %
  % Parasitemia ± S.D on Day 21: Dead
  Mean Survival Time (MST) Days ± SD: 13.5 ± 2.3 days
[9]; Swiss mice
  Day 4 % Suppression: 44%
